As usually defined, the pKa is the negative logarithm of the acid dissociation constant.

We go through six compounds from patent US9486462B2, “Formulations of aminoglycosides and fosfomycin in a combination having improved chemical properties” (CARDEAS PHARMA CORPORATION, priority 2013, dated 2016).

The conditions of data set [1]: commercially available; cited from earlier work.
Data set [2] is described as follows: pH of amikacin starting materials. It counts as physicochemical. Particulars: amikacin base, before neutralization.
For data set [3] the following is noted: cited from earlier work.
In data set [4] the test system is Staphylococcus aureus. The data set can be described thus: Predicted lung concentration relative to MIC90, Staphylococcus aureus. It counts as in vivo. The protocol: (§1) In clinical use, concentration of the aminoglycoside and fosfomycin are delivered to yield a concentration in the lungs that is MIC90 for the target organism. For amikacin, about […] of amikacin chloride and about […] of fosfomycin disodium are delivered to the lung (50 mg amikacin chloride and 20 mg fosfomycin in solution) using a nebulizer with an expected 15% delivery efficiency.

A further data set relates to pseudomonas. Particulars: approximately 20 mg delivered to the lung, co-infected patients; cited from earlier work.
The conditions of data set [5]: in vivo. The procedure:
as §1

Data set [6] relates to Staphylococcus aureus. The settings on record: cited from earlier work.
Data set [7] relates to highly resistant Gram-negative organisms. The data set can be described thus: Predicted lung concentration relative to MIC90, Gram-negative organisms. The settings on record: most highly resistant Gram-negative organisms. In kind it is in vivo. The protocol: as §1

As to `NCC[C@H](O)C(=O)N[C@@H]1C[C@H](N)[C@@H](O[C@H]2O[C@H](CN)[C@@H](O)[C@H](O)[C@H]2O)[C@H](O)[C@H]1O[C@H]1O[C@H](CO)[C@@H](O)[C@H](N)[C@H]1O.O=S(=O)(O)O.O=S(=O)(O)O` [amikacin sulfate], the “starting pH” value in data set [1] is 3.5-5.5. For the compound `NCC[C@H](O)C(=O)N[C@@H]1C[C@H](N)[C@@H](O[C@H]2O[C@H](CN)[C@@H](O)[C@H](O)[C@H]2O)[C@H](O)[C@H]1O[C@H]1O[C@H](CO)[C@@H](O)[C@H](N)[C@H]1O` [amikacin], the pH entry in data set [2] is given as “approximately 11”. Turning to `NCC[C@H](O)C(=O)N[C@@H]1C[C@H](N)[C@@H](O[C@H]2O[C@H](CN)CC[C@H]2N)[C@H](O)[C@H]1O[C@H]1O[C@H](CO)[C@@H](O)[C@H](N)[C@H]1O` [arbekacin], the pKa in data set [3] was 10.2. Regarding `C[C@@H]1O[C@@H]1P(=O)(O)O` [fosfomycin], in the data set with Staphylococcus aureus [4], the “predicted peak concentration, times the MIC90” value was “greater than 25 times”. Besides, the bacterial density entry in the data set on pseudomonas is reported as “Decreased bacterial density”; in the data set with Staphylococcus aureus [6] (approximately 20 mg delivered to the lung, co-infected patients), “Decreased bacterial density”. For the same compound, the “predicted concentration delivered to the lungs” value in data set [5] is listed as “about 5400 ug/mL”. Further, in the data set with Staphylococcus aureus [6] (estimated 40 mg delivered dose versus estimated 20 mg dose), the killing of staphylococcus result is listed as “more efficacious”.

amikacin chloride: the “predicted lung concentration, times the MIC90” value in data set [7] is reported as “greater than 25 times”. Further, the “predicted concentration delivered to the lungs” value in data set [5] is listed as “about 13,500 ug/mL”. Turning to gentamycin, the pKa in data set [3] was 8.2.
